Patent US7745477B2, “Heteroaryl and benzyl amide compounds” (Hoffman-La Roche Inc., priority 2006, dated 2010)

Molecular target: T1, cholesteryl ester transfer protein (CETP) (Homo sapiens, UniProt P11597)
T1 construct: the source of CETP was human lipoprotein-deprived serum (LPDS); from tissue; host or cells: human lipoprotein-deprived serum (LPDS)
T1 sequence (P11597 18-493): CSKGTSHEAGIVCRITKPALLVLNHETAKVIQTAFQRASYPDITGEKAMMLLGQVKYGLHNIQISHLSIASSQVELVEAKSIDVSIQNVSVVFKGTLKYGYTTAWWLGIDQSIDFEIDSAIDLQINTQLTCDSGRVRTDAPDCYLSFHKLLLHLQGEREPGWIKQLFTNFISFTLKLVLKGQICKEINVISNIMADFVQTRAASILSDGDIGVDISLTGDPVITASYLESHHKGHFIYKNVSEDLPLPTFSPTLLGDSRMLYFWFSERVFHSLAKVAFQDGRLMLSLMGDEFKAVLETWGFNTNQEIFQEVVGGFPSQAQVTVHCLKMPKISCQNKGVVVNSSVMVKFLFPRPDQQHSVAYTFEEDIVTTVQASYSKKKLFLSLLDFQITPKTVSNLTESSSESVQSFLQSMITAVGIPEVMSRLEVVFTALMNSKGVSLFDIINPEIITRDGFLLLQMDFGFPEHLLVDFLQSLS
Experiment: CETP activity SPA assay in the presence of plasma (source of CETP: human lipoprotein-deprived serum, LPDS)
Format: biochemical
Settings: CETP from human lipoprotein-deprived serum (LPDS); transfer of radiolabeled cholesteryl ester from HDL donor to biotin-labeled LDL acceptor particles
Method: Activity of CETP inhibitors was determined using a buffer assay system. Partially purified CETP transferred radiolabeled cholesteryl ester from HDL donor particles to biotin-labeled LDL acceptor particles. The reaction was stopped by addition of streptavidin-coupled scintillation proximity assay (SPA) beads. These beads captured the biotinylated acceptor particles and transferred radioactivity was measured. The assay system was purchased and performed according to manufacturer's recommendations (Amersham Biosciences). Inhibitory activity of compounds was determined as percentage of positive control activity containing CETP together with donor and acceptor particles. Serial dilution of compounds was performed in order to determine the IC50 values.
Activity of the compounds was subsequently measured in the presence of plasma using the same assay as described above except that the source of CETP was human lipoprotein-deprived serum (LPDS). Inhibitory activity of compounds was determined as percentage of positive control activity containing all the assay components except compound. Serial dilution of compounds was performed in order to determine the IC50 values.

IC50 [nM]	Structure (SMILES)
66800	CC(C)(C)c1ccc(CN(CCc2ccc(Cl)c(Cl)c2)C(=O)c2cnccc2Cl)cc1 [Compound B3, N-(4-tert-Butyl-benzyl)-4-chloro-N-[2-(3,4-dichloro-phenyl)-ethyl]-nicotinamide]
1250	O=C(c1cc(Cl)cc(Cl)c1)N(CCc1ccc(Cl)cc1)Cc1ccc(C(F)(C(F)(F)F)C(F)(F)F)cc1 [Compound B104, 3,5-Dichloro-N-[2-(4-chloro-phenyl)-ethyl]-N-[4-(1,2,2,2-tetrafluoro-1-trifluoromethyl-ethyl)-benzyl]-benzamide]
409	CCC(C)(C)c1ccc(CN(CCc2ccc(Cl)cc2)C(=O)c2cc(Cl)cc(Cl)c2)cc1 [Compound B108, 3,5-Dichloro-N-[2-(4-chloro-phenyl)-ethyl]-N-[4-(1,1-dimethyl-propyl)-benzyl]-benzamide]
